17 compounds from patent US12643912B2, “Macrocyclic compounds, a process for their preparation and pharmaceutical compositions containing them” (LES LABORATOIRES SERVIER, priority 2020, dated 2026) can be followed below.

Assay [1] concerns the target T1, Keap1 (A321-C624) (h) (Homo sapiens, UniProt Q14145).
T1 construct: His-Thromb-KEAP1(A321-C624) acquired from Novalix (batch PU-P01) was immobilized covalently by amine coupling; His tag (N); thrombin cleavage site (Thromb) (N); purchased Novalix batch PU-P01
Nature of the assay: Surface Plasmon Resonance binding assay to Kelch domain of KEAP1. The following applies: Biacore T200, 25° C., immobilized His-Thromb-KEAP1(A321-C624), single cycle kinetics, KD=kd/ka from 1:1 fit; read-out: Keap1 (A321-C624) (h) direct/SPR (KD). In outline:
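His-Thromb-KEAP1(A321-C624) amine-coupled on CM5 chip to 1250 RU; amine blank reference. Run at 25° C in HEPES pH 7.4, 150 mM NaCl, 3 mM EDTA, 1 mM TCEP, 0.05% P20, 5% DMSO; 180 s association, 720 s dissociation, 50 μL/min. KD = kd/ka from 1:1 kinetic fit, double-referenced, DMSO solvent-corrected.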

Assay [2] relates to Nrf2 (Keap1-NRF2 nuclear translocation). Kind of assay: U2OS translocation assay (PathHunter U2OS Keap1-NRF2 Nuclear Translocation Cell Line). It is filed as cell-based. In outline:
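Enzyme-fragment complementation read-out: luminescence after 60 min of detection reagent at room temperature, following a 3 h, 37° C compound exposure of engineered U2OS Keap1-NRF2 translocation cells (1% FBS medium). Signal scaled from 1% DMSO basal to 10 μM andrographolide maximum.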

The mark [3] stands for this setting: Homo sapiens, U2OS, 3 h, read-out: CELLULAR U2OS EC50 (nM), U2OS Keap1-NRF2 nuclear translocation cells, 3 h incubation, luminescence, normalized between 1% DMSO and 10 μM andrographolide.

Like-named read-outs stand apart in the source and are kept apart here.

T1 sequence (Q14145 321-624): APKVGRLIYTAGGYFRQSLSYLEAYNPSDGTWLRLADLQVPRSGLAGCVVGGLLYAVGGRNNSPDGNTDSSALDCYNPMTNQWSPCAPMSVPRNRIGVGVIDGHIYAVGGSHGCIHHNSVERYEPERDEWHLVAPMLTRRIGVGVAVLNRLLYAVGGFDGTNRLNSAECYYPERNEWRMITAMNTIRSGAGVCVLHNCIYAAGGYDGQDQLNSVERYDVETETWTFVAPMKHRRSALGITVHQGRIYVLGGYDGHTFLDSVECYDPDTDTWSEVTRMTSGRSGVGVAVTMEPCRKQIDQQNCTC

What is called EC50 is the concentration that produces a half-maximal response. `Cc1ccc2cc1CN1Cc3cc(ccc3OS1(=O)=O)OCCCCCOc1cc(c(C)c3nnn(C)c13)C2CC(=O)O` (single isomer, unassigned) [Example 73b, [4,10,14-Trimethyl-29,29-dioxo-17,23,28-trioxa-29λ^6-thia-1,12,13,14-tetraazahexacyclo[22.5.3.1^3,70.1^9,160.0^11,150.0^27,31]tetratriaconta-3(34),4,6,9(33),10,12,15,24,26,31-decaen-8-yl]acetic acid]: the Kd in assay [1] worked out at 17.6 nM. Moreover, the EC50 in assay [2] (read-out: CELLULAR U2OS EC50, U2OS Keap1-NRF2 nuclear translocation cells, 3 h incubation, luminescence, normalized between 1% DMSO and 10 μM andrographolide) came to 707 nM.
As to `Cc1ccc2cc1[C@@H](C)N1Cc3cc(ccc3OS1(=O)=O)OCCCCn1nnc3c(C)c(ccc31)[C@@H]2CC(=O)O` [Example 3a, [(2R,8R)-2,4,31-Trimethyl-27,27-dioxo-21,26-dioxa-27λ^6-thia-1,14,15,16-tetraazahexacyclo[20.5.3.1^3,70.1^9,130.0^12,160.0^25,29]dotriaconta-3(32),4,6,9(31),10,12,14,22,24,29-decaen-8-yl]acetic acid], the Kd in assay [1] worked out at 7.64 nM. The concentration for a half-maximal effect (EC50) in assay [2] (setting [3]) came out at 79.5 nM.
Consider `Cc1ccc2cc1[C@@H](C)N1Cc3cc(ccc3OS1(=O)=O)OCCCCn1nnc3c(C)c(ccc31)[C@H]2CC(=O)O` [Example 3b, [(2R,8S)-2,4,31-trimethyl-27,27-dioxo-21,26-dioxa-27λ^6-thia-1,14,15,16-tetraazahexacyclo[20.5.3.1^3,70.1^9,130.0^12,160.0^25,29]dotriaconta-3(32),4,6,9(31),10,12,14,22,24,29-decaen-8-yl]acetic acid], for which, in assay [1], the Kd turned out to be 1.05 nM. In assay [2] (setting [3]), the EC50 was 10.6 nM.
On to `Cc1c2ccc3c1nnn3CCCCOc1ccc3c(c1)CN(Cc1cc(F)cc(c1)C2CC(=O)O)S(=O)(=O)O3` (stereo not shown) [Example 4, [5-Fluoro-31-methyl-27,27-dioxo-21,26-dioxa-27λ^6-thia-1,14,15,16-tetraazahexacyclo[20.5.3.1^3,70.1^9,130.0^12,160.0^25,29]dotriaconta-3(32),4,6,9(31),10,12,14,22,24,29-decaen-8-yl]acetic acid], for which the Kd in assay [1] was found to be 255 nM. Further, the EC50 in assay [2] (setting [3]) was determined as 3470 nM.
Turning to `Cc1cc2cc(c1)C(CC(=O)O)c1ccc3c(nnn3CCCCOc3ccc4c(c3)CN(C2)S(=O)(=O)O4)c1C` (stereo not shown) [Example 5, [5,31-Dimethyl-27,27-dioxo-21,26-dioxa-27λ^6-thia-1,14,15,16-tetraazahexacyclo[20.5.3.1^3,70.1^9,130.0^12,160.0^25,29]dotriaconta-3(32),4,6,9(31),10,12,14,22,24,29-decaen-8-yl]acetic acid], the Kd in assay [1] worked out at 131 nM. For the same compound, the EC50 in assay [2] (setting [3]) amounted to 1810 nM.
The like results for `Cc1c2ccc3c1nnn3CCCCOc1ccc3c(c1)CN(Cc1cccc(c1)C2CC(=O)O)S(=O)(=O)O3` (stereo not shown) [Example 6, [31-Methyl-27,27-dioxo-21,26-dioxa-27λ^6-thia-1,14,15,16-tetraazahexacyclo[20.5.3.1^3,70.1^9,130.0^12,160.0^25,29]dotriaconta-3(32),4,6,9(31),10,12,14,22,24,29-decaen-8-yl]acetic acid] were, in that order, 33.7 nM and 1330 nM.
For the compound `Cc1ccc2cc1CN1Cc3cc(ccc3OS1(=O)=O)OCCCCn1nnc3c(C)c(ccc31)[C@H]2CC(=O)O` [Example 7a, [(8S)-4,31-Dimethyl-27,27-dioxo-21,26-dioxa-27λ^6-thia-1,14,15,16-tetraazahexacyclo[20.5.3.1^3,70.1^9,130.0^12,160.0^25,29]dotriaconta-3(32),4,6,9(31),10,12,14,22,24,29-decaen-8-yl]acetic acid], the Kd in assay [1] worked out at 1.07 nM. In assay [2] (setting [3]), the EC50 came to 23 nM.
The like results for `Cc1ccc2cc1CN1Cc3cc(ccc3OS1(=O)=O)OCCCCn1nnc3c(C)c(ccc31)[C@@H]2CC(=O)O` [Example 7b, [(8R)-4,31-dimethyl-27,27-dioxo-21,26-dioxa-27λ^6-thia-1,14,15,16-tetraazahexacyclo[20.5.3.1^3,70.1^9,130.0^12,160.0^25,29]dotriaconta-3(32),4,6,9(31),10,12,14,22,24,29-decaen-8-yl]acetic acid] were, in that order, 4.86 nM and 290 nM.
Take `Cc1c2ccc3c1nnn3CCCCOc1ccc3c(c1)CN(Cc1cc(ccc1F)C2CC(=O)O)S(=O)(=O)O3` (stereo not shown) [Example 14, [4-Fluoro-31-methyl-27,27-dioxo-21,26-dioxa-27λ^6-thia-1,14,15,16-tetraazahexacyclo[20.5.3.1^3,70.1^9,130.0^12,160.0^25,29]dotriaconta-3(32),4,6,9(31),10,12,14,22,24,29-decaen-8-yl]acetic acid]: the Kd in assay [1] turned out to be 14.2 nM. For the same compound, in assay [2] (setting [3]), the concentration for a half-maximal effect (EC50) came to 582 nM.
Take `Cc1ccc2cc1[C@@H](C)N1Cc3cc(ccc3OS1(=O)=O)OCCCCCCn1nnc3c(C)c(ccc31)[C@@H]2CC(=O)O` [Example 19a, [(2R,8R)-2,4,33-Trimethyl-29,29-dioxo-23,28-dioxa-29λ^6-thia-1,14,15,16-tetraazahexacyclo[22.5.3.1^3,70.1^9,130.0^12,160.0^27,31]tetratriaconta-3(34),4,6,9(33),10,12,14,24,26,31-decaen-8-yl]acetic acid]: in assay [1], the Kd amounted to 1.34 nM. In addition, in assay [2] (setting [3]), the EC50 came to 73.6 nM.
In the case of `Cc1ccc2cc1[C@@H](C)N1Cc3cc(ccc3OS1(=O)=O)OCCCCCCn1nnc3c(C)c(ccc31)[C@H]2CC(=O)O` [Example 19b, [(2R,8S)-2,4,33-trimethyl-29,29-dioxo-23,28-dioxa-29λ^6-thia-1,14,15,16-tetraazahexacyclo[22.5.3.1^3,70.1^9,130.0^12,160.0^27,31]tetratriaconta-3(34),4,6,9(33),10,12,14,24,26,31-decaen-8-yl]acetic acid], in assay [1], the Kd came out at 0.646 nM. In addition, in assay [2] (setting [3]), the EC50 was 2.76 nM.
`Cc1ccc2cc1[C@@H](C)N1Cc3cc(ccc3OS1(=O)=O)OCCCCCn1nnc3c(C)c(ccc31)[C@H]2CC(=O)O` [Example 20a, [(2R,8S)-2,4,32-Trimethyl-28,28-dioxo-22,27-dioxa-28λ^6-thia-1,14,15,16-tetraazahexacyclo[21.5.3.1^3,70.1^9,130.0^12,160.0^26,30]tritriaconta-3(33),4,6,9(32),10,12,14,23,25,30-decaen-8-yl]acetic acid]: the Kd in assay [1] worked out at 0.549 nM. Moreover, in assay [2] (setting [3]), the concentration for a half-maximal effect (EC50) stood at 1.99 nM.
In the case of `Cc1ccc2cc1[C@@H](C)N1Cc3cc(ccc3OS1(=O)=O)OCCCCCn1nnc3c(C)c(ccc31)[C@@H]2CC(=O)O` [Example 20b, [(2R,8R)-2,4,32-trimethyl-28,28-dioxo-22,27-dioxa-28λ^6-thia-1,14,15,16-tetraazahexacyclo[21.5.3.1^3,70.1^9,130.0^12,160.0^26,30]tritriaconta-3(33),4,6,9(32),10,12,14,23,25,30-decaen-8-yl]acetic acid], in assay [1], the Kd came to 2.3 nM. Moreover, the EC50 in assay [2] (setting [3]) came out at 131 nM.
As for `Cc1ccc2cc1[C@@H](C)N1Cc3cc(ccc3OS1(=O)=O)OCCCN(C)CCn1nnc3c(C)c(ccc31)[C@H]2CC(=O)O` [Example 21a, [(2R,8S)-2,4,19,33-Tetramethyl-29,29-dioxo-23,28-dioxa-29λ^6-thia-1,14,15,16,19-pentaazahexacyclo[22.5.3.1^3,70.1^9,130.0^12,160.0^27,31]tetratriaconta-3(34),4,6,9(33),10,12,14,24,26,31-decaen-8-yl]acetic acid], the Kd in assay [1] came out at 2.55 nM. Further, the EC50 in assay [2] (setting [3]) was found to be 10.9 nM.
For the compound `Cc1ccc2cc1[C@@H](C)N1Cc3cc(ccc3OS1(=O)=O)OCCCN(C)CCn1nnc3c(C)c(ccc31)[C@@H]2CC(=O)O` [Example 21b, [(2R,8R)-2,4,19,33-tetramethyl-29,29-dioxo-23,28-dioxa-29λ^6-thia-1,14,15,16,19-pentaazahexacyclo[22.5.3.1^3,70.1^9,130.0^12,160.0^27,31]tetratriaconta-3(34),4,6,9(33),10,12,14,24,26,31-decaen-8-yl]acetic acid], the Kd in assay [1] is 20.8 nM. Also, the EC50 in assay [2] (setting [3]) was 166 nM.
Take `COc1cc2cc3c1OS(=O)(=O)N(C3)[C@H](C)c1cc(ccc1C)[C@@H](CC(=O)O)c1ccc3c(nnn3CCCCO2)c1C` [Example 23a, [(2R,8R)-24-Methoxy-2,4,31-trimethyl-27,27-dioxo-21,26-dioxa-27λ^6-thia-1,14,15,16-tetraazahexacyclo[20.5.3.1^3,70.1^9,130.0^12,160.0^25,29]dotriaconta-3(32),4,6,9(31),10,12,14,22,24,29-decaen-8-yl]acetic acid]: the Kd in assay [1] came out at 50.5 nM. Further, in assay [2] (setting [3]), the half-maximal effective concentration (EC50) was 3160 nM.
Consider `COc1cc2cc3c1OS(=O)(=O)N(C3)[C@H](C)c1cc(ccc1C)[C@H](CC(=O)O)c1ccc3c(nnn3CCCCO2)c1C` [Example 23b, [(2R,8S)-24-methoxy-2,4,31-trimethyl-27,27-dioxo-21,26-dioxa-27λ^6-thia-1,14,15,16-tetraazahexacyclo[20.5.3.1^3,70.1^9,130.0^12,160.0^25,29]dotriaconta-3(32),4,6,9(31),10,12,14,22,24,29-decaen-8-yl]acetic acid], for which the Kd in assay [1] was 8.8 nM. Moreover, the EC50 in assay [2] (setting [3]) was 344 nM.
